# Legend:
# [1] = Clearance in ICR mouse at 20 mg/kg,iv administration measured upto 6 hrs by LC-MS/MS analysis; assay type: ADME, organism-based; conditions: in vivo
# [2] = system: Escherichia coli; assay: Antibacterial activity against ESBL-producing multidrug-resistant Escherichia coli clinical isolate 14-1 assessed as inhibition of bacterial growth incubated for 18 to 20 hrs by two fold serial dilution assay; assay type: functional; conditions: time 18-20 hrs
# [3] = MRT in ICR mouse at 20 mg/kg,iv administration measured upto 6 hrs by LC-MS/MS analysis; assay type: ADME, organism-based; conditions: in vivo
# [4] = system: Acinetobacter baumannii; assay: Antibacterial activity against OXA-23 producing multidrug-resistant Acinetobacter baumannii clinical isolate 15-2 assessed as inhibition of bacterial growth incubated for 18 to 20 hrs by two fold serial dilution assay; assay type: functional; conditions: time 18-20 hrs
# [5] = system: Pseudomonas aeruginosa; assay: Antibacterial activity against IMP-4 producing multidrug-resistant Pseudomonas aeruginosa clinical isolate 17-13 assessed as inhibition of bacterial growth incubated for 18 to 20 hrs by two fold serial dilution assay; assay type: functional; conditions: time 18-20 hrs
# [6] = Volume of distribution at steady state in ICR mouse at 20 mg/kg,iv administration measured upto 6 hrs by LC-MS/MS analysis; assay type: ADME, organism-based; conditions: in vivo, read-out: Vdss
# [7] = system: Escherichia coli; assay: Antibacterial activity against Escherichia coli ATCC35218 assessed as inhibition of bacterial growth incubated for 18 to 20 hrs by two fold serial dilution assay; assay type: functional; conditions: time 18-20 hrs
# [8] = system: Acinetobacter baumannii; assay: Antibacterial activity against OXA-23 producing multidrug-resistant Acinetobacter baumannii clinical isolate 15-4 assessed as inhibition of bacterial growth incubated for 18 to 20 hrs by two fold serial dilution assay; assay type: functional; conditions: time 18-20 hrs
# [9] = AUC (0 to infinity) in ICR mouse at 20 mg/kg,iv administration measured upto 6 hrs by LC-MS/MS analysis; assay type: ADME, organism-based; conditions: in vivo
# [10] = system: Escherichia coli; assay: Antibacterial activity against ESBL-producing multidrug-resistant Escherichia coli clinical isolate 14-2 assessed as inhibition of bacterial growth incubated for 18 to 20 hrs by two fold serial dilution assay; assay type: functional; conditions: time 18-20 hrs
# [11] = system: Klebsiella pneumoniae; assay: Antibacterial activity against KPC-2 producing multidrug-resistant Klebsiella pneumoniae clinical isolate 15-5 assessed as inhibition of bacterial growth incubated for 18 to 20 hrs by two fold serial dilution assay; assay type: functional; conditions: time 18-20 hrs
# [12] = system: Klebsiella pneumoniae; assay: Antibacterial activity against KPC-2 producing multidrug-resistant Klebsiella pneumoniae clinical isolate 15-2 assessed as inhibition of bacterial growth incubated for 18 to 20 hrs by two fold serial dilution assay; assay type: functional; conditions: time 18-20 hrs
# [13] = system: Acinetobacter baumannii; assay: Antibacterial activity against OXA-23 producing multidrug-resistant Acinetobacter baumannii clinical isolate 15-5 assessed as inhibition of bacterial growth incubated for 18 to 20 hrs by two fold serial dilution assay; assay type: functional; conditions: time 18-20 hrs
# [14] = system: Acinetobacter baumannii; assay: Antibacterial activity against OXA-23 producing multidrug-resistant Acinetobacter baumannii clinical isolate 15-1 assessed as inhibition of bacterial growth incubated for 18 to 20 hrs by two fold serial dilution assay; assay type: functional; conditions: time 18-20 hrs
# [15] = Half life in ICR mouse at 20 mg/kg,iv administration measured upto 6 hrs by LC-MS/MS analysis; assay type: ADME, organism-based; conditions: in vivo
# [16] = system: Pseudomonas aeruginosa; assay: Antibacterial activity against IMP-4 producing multidrug-resistant Pseudomonas aeruginosa clinical isolate 19-17 assessed as inhibition of bacterial growth incubated for 18 to 20 hrs by two fold serial dilution assay; assay type: functional; conditions: time 18-20 hrs
# [17] = system: Acinetobacter baumannii; assay: Antibacterial activity against OXA-23 producing multidrug-resistant Acinetobacter baumannii clinical isolate 15-3 assessed as inhibition of bacterial growth incubated for 18 to 20 hrs by two fold serial dilution assay; assay type: functional; conditions: time 18-20 hrs
# [18] = system: Klebsiella pneumoniae; assay: Antibacterial activity against KPC-2 producing multidrug-resistant Klebsiella pneumoniae clinical isolate 15-1 assessed as inhibition of bacterial growth incubated for 18 to 20 hrs by two fold serial dilution assay; assay type: functional; conditions: time 18-20 hrs
# [19] = system: Escherichia coli; assay: Antibacterial activity against ESBL-producing multidrug-resistant Escherichia coli clinical isolate 14-4 assessed as inhibition of bacterial growth incubated for 18 to 20 hrs by two fold serial dilution assay; assay type: functional; conditions: time 18-20 hrs
# [20] = system: Klebsiella pneumoniae; assay: Antibacterial activity against KPC-2 producing multidrug-resistant Klebsiella pneumoniae clinical isolate 15-3 assessed as inhibition of bacterial growth incubated for 18 to 20 hrs by two fold serial dilution assay; assay type: functional; conditions: time 18-20 hrs
# [21] = system: Acinetobacter baumannii; assay: Antibacterial activity against OXA-23 producing multidrug-resistant Acinetobacter baumannii clinical isolate 17-2 assessed as inhibition of bacterial growth incubated for 18 to 20 hrs by two fold serial dilution assay; assay type: functional; conditions: time 18-20 hrs
# [22] = system: Acinetobacter baumannii; assay: Antibacterial activity against OXA-23 producing multidrug-resistant Acinetobacter baumannii clinical isolate 17-3 assessed as inhibition of bacterial growth incubated for 18 to 20 hrs by two fold serial dilution assay; assay type: functional; conditions: time 18-20 hrs
# [23] = system: Pseudomonas aeruginosa; assay: Antibacterial activity against IMP-4 producing multidrug-resistant Pseudomonas aeruginosa clinical isolate 19-5 assessed as inhibition of bacterial growth incubated for 18 to 20 hrs by two fold serial dilution assay; assay type: functional; conditions: time 18-20 hrs
# [24] = system: Pseudomonas aeruginosa; assay: Antibacterial activity against Pseudomonas aeruginosa ATCC 27853 assessed as inhibition of bacterial growth incubated for 18 to 20 hrs by two fold serial dilution assay; assay type: functional; conditions: time 18-20 hrs
# [25] = system: Pseudomonas aeruginosa; assay: Antibacterial activity against IMP-4 producing multidrug-resistant Pseudomonas aeruginosa clinical isolate 15-4 assessed as inhibition of bacterial growth incubated for 18 to 20 hrs by two fold serial dilution assay; assay type: functional; conditions: time 18-20 hrs
# [26] = system: Pseudomonas aeruginosa; assay: Antibacterial activity against IMP-4 producing multidrug-resistant Pseudomonas aeruginosa clinical isolate 15-5 assessed as inhibition of bacterial growth incubated for 18 to 20 hrs by two fold serial dilution assay; assay type: functional; conditions: time 18-20 hrs
# [27] = system: Pseudomonas aeruginosa; assay: Antibacterial activity against IMP-4 producing multidrug-resistant Pseudomonas aeruginosa clinical isolate 15-1 assessed as inhibition of bacterial growth incubated for 18 to 20 hrs by two fold serial dilution assay; assay type: functional; conditions: time 18-20 hrs
# [28] = system: Pseudomonas aeruginosa; assay: Antibacterial activity against IMP-4 producing multidrug-resistant Pseudomonas aeruginosa clinical isolate 19-1 assessed as inhibition of bacterial growth incubated for 18 to 20 hrs by two fold serial dilution assay; assay type: functional; conditions: time 18-20 hrs
SMILES,clearance [1] [mL/min/kg],MIC [2] [µg/mL],MRT [3] [min],MIC [4] [µg/mL],MIC [5] [µg/mL],Vd [6] [L/kg],MIC [8] [µg/mL],MIC [10] [µg/mL],MIC [11] [µg/mL],MIC [12] [µg/mL],MIC [13] [µg/mL],MIC [14] [µg/mL],MIC [17] [µg/mL],MIC [18] [µg/mL],MIC [19] [µg/mL],MIC [20] [µg/mL],MIC [24] [µg/mL],MIC [25] [µg/mL],MIC [26] [µg/mL],MIC [27] [µg/mL],further results
CC1CCC(C(O/N=C(\C(=O)N[C@@H]2C(=O)N3C(C(=O)O)=C(CSCCNC(=O)c4ccc(O)c(O)c4Cl)CS[C@H]23)c2csc(N)n2)C(=O)O)CC1.O=C(O)C(F)(F)F (some centres not stated),60.3,0.5,35.4,8,0.5,2.37,4,0.5,0.5,0.5,8,4,4,1,0.125,1,–,–,–,–,MIC [7]: ≤ 0.03 µg/mL; AUC(0-inf) [9]: 5760 ng·h/mL; half-life [15]: 139 min; MIC [16]: 0.5 µg/mL
Nc1nc(/C(=N/OC(C(=O)O)C2CCCCC2)C(=O)N[C@@H]2C(=O)N3C(C(=O)O)=C(CSCCNC(=O)c4ccc(O)c(O)c4Cl)CS[C@H]23)c(Cl)s1.O=C(O)C(F)(F)F (some centres not stated),–,0.25,–,2,0.25,–,2,0.5,1,1,4,4,4,1,0.5,2,–,–,–,–,MIC [21]: 1 µg/mL; MIC [22]: 2 µg/mL; MIC [7]: 0.125 µg/mL; MIC [23]: 1 µg/mL; MIC [16]: 0.5 µg/mL
Cc1ccc(S(=O)(=O)O)cc1.Nc1nc(/C(=N/OC(C(=O)O)C2CCC(F)(F)CC2)C(=O)N[C@@H]2C(=O)N3C(C(=O)O)=C(CSCCNC(=O)c4ccc(O)c(O)c4Cl)CS[C@H]23)cs1 (some centres not stated),31.3,–,12,–,–,0.402,–,–,–,–,–,–,–,–,–,–,–,–,–,–,AUC(0-inf) [9]: 11600 ng·h/mL; half-life [15]: 45 min
CC(C)(C)C(O/N=C(\C(=O)N[C@@H]1C(=O)N2C(C(=O)O)=C(CSCCNC(=O)c3ccc(O)c(O)c3Cl)CS[C@H]12)c1csc(N)n1)C(=O)O.O=C(O)C(F)(F)F (some centres not stated),–,0.06,–,1,–,–,1,1,0.5,1,2,2,2,0.25,2,16,4,8,4,4,–
CC(C)(O/N=C(\C(=O)N[C@@H]1C(=O)N2C(C(=O)[O-])=C(C[N+]3(CCNC(=O)c4ccc(O)c(O)c4Cl)CCCC3)CS[C@H]12)c1csc(N)n1)C(=O)O.O=C(O)C(F)(F)F,25.2,–,26.4,–,–,0.663,–,–,–,–,–,–,–,–,–,–,–,–,–,–,AUC(0-inf) [9]: 11600 ng·h/mL; half-life [15]: 33 min
Nc1nc(/C(=N/OC2(C(=O)O)CCC2)C(=O)N[C@@H]2C(=O)N3C(C(=O)O)=C(CSCCNC(=O)c4ccc(O)c(O)c4Cl)CS[C@H]23)cs1.O=C(O)C(F)(F)F,–,0.25,–,32,–,–,32,2,4,4,32,32,32,2,32,8,2,1,2,1,–
Nc1nc(/C(=N/OC(C(=O)O)C2CCC(F)(F)CC2)C(=O)N[C@@H]2C(=O)N3C(C(=O)O)=C(CSCCNC(=O)c4ccc(O)c(O)c4Cl)CS[C@H]23)ns1.O=C(O)C(F)(F)F (some centres not stated),–,1,–,–,0.5,–,–,4,16,32,–,–,–,16,1,16,–,–,–,–,MIC [21]: 0.25 µg/mL; MIC [22]: 0.25 µg/mL; MIC [7]: 0.25 µg/mL; MIC [23]: 4 µg/mL; MIC [28]: 8 µg/mL; MIC [16]: 1 µg/mL
CC(C)C(O/N=C(\C(=O)N[C@@H]1C(=O)N2C(C(=O)O)=C(CS[C@H]3CC[C@@H](NC(=O)c4ccc(O)c(O)c4Cl)CC3)CS[C@H]12)c1csc(N)n1)C(=O)O.O=C(O)C(F)(F)F (some centres not stated),–,0.125,–,16,–,–,16,2,2,2,16,32,32,2,16,4,2,2,8,8,–
Nc1nc(/C(=N/OC(C(=O)O)C2CCCCC2)C(=O)N[C@@H]2C(=O)N3C(C(=O)O)=C(CSCCNC(=O)c4ccc(O)c(O)c4Cl)CS[C@H]23)c(Br)s1.O=C(O)C(F)(F)F (some centres not stated),–,1,–,1,0.25,–,2,0.5,1,2,1,2,2,2,0.25,8,–,–,–,–,MIC [21]: 1 µg/mL; MIC [22]: 1 µg/mL; MIC [7]: 0.06 µg/mL; MIC [23]: 1 µg/mL; MIC [28]: 4 µg/mL; MIC [16]: 0.5 µg/mL
Nc1nc(/C(=N/OC2(C(=O)O)CC2)C(=O)N[C@@H]2C(=O)N3C(C(=O)O)=C(CSCCNC(=O)c4ccc(O)c(O)c4Cl)CS[C@H]23)cs1.O=C(O)C(F)(F)F,–,0.5,–,64,–,–,64,2,32,32,64,64,32,16,64,> 64,4,1,4,1,–
CC(C)C(O/N=C(\C(=O)N[C@@H]1C(=O)N2C(C(=O)O)=C(CSCCNC(=O)c3ccc(O)c(O)c3Cl)CS[C@H]12)c1csc(N)n1)C(=O)O.O=C(O)C(F)(F)F (some centres not stated),–,0.06,–,4,–,–,4,2,0.25,0.5,4,8,4,0.5,0.5,0.5,8,4,4,2,–
Cl.Nc1nc(/C(=N/OC(C(=O)O)C2CCC(F)(F)CC2)C(=O)N[C@@H]2C(=O)N3C(C(=O)O)=C(CSCCNC(=O)c4ccc(O)c(O)c4Cl)CS[C@H]23)cs1 (some centres not stated),54,–,18.6,–,–,0.997,–,–,–,–,–,–,–,–,–,–,–,–,–,–,AUC(0-inf) [9]: 6340 ng·h/mL; half-life [15]: 46.8 min
CC(C)(C)C(O/N=C(\C(=O)N[C@@H]1C(=O)N2C(C(=O)O)=C(CS[C@H]3CC[C@@H](NC(=O)c4ccc(O)c(O)c4Cl)CC3)CS[C@H]12)c1csc(N)n1)C(=O)O.O=C(O)C(F)(F)F (some centres not stated),–,0.5,–,4,–,–,4,4,1,16,8,8,8,4,4,32,8,16,8,8,–

# From ChEMBL document CHEMBL5543142, “Discovery of YFJ-36: Design, Synthesis, and Antibacterial Activities of Catechol-Conjugated β-Lactams against Gram-Negative Bacteria” (J Med Chem, 2024)
